# ChEMBL document CHEMBL5727558, “Organic compounds” (2020)
# Assays:
# [1] = molecular target: Dual specificity calcium/calmodulin-dependent 3',5'-cyclic nucleotide phosphodiesterase 1A (Homo sapiens, UniProt P54750); assay: (§1) Enzyme Assay: Assay: The following phosphodiesterase enzymes may be used: 3′,5′-cyclic-nucleotide-specific bovine brain phosphodiesterase (Sigma, St. Louis, Mo.) (predominantly PDE1B) and recombinant full length human PDE1A and PDE1B (r-hPDE1A and r-hPDE1B respectively) which may be produced e.g., in HEK or SF9 cells by one skilled in the art. The PDE1 enzyme is reconstituted with 50% glycerol to 2.5 U/ml. One unit of enzyme will hydrolyze 1.0 μmole of 3′,5′-cAMP to 5′-AMP per min at pH 7.5 at 30° C. One part enzyme is added to 1999 parts reaction buffer (30 μM CaCl2, 10 U/ml of calmodulin (Sigma P2277), 10 mM Tris-HCl pH 7.2, 10 mM MgCl2, 0.1% BSA, 0.05% NaN3) to yield a final concentration of 1.25 mU/ml. 99 μl of diluted enzyme solution is added into each well in a flat bottom 96-well polystyrene plate to which 1 μl of test compound dissolved in 100% DMSO is added. The compounds are mixed and pre-incubated with the enzyme for 10 min at room temperature.
# Dual specificity calcium/calmodulin-dependent 3',5'-cyclic nucleotide phosphodiesterase 1A, sequence (P54750 whole entry): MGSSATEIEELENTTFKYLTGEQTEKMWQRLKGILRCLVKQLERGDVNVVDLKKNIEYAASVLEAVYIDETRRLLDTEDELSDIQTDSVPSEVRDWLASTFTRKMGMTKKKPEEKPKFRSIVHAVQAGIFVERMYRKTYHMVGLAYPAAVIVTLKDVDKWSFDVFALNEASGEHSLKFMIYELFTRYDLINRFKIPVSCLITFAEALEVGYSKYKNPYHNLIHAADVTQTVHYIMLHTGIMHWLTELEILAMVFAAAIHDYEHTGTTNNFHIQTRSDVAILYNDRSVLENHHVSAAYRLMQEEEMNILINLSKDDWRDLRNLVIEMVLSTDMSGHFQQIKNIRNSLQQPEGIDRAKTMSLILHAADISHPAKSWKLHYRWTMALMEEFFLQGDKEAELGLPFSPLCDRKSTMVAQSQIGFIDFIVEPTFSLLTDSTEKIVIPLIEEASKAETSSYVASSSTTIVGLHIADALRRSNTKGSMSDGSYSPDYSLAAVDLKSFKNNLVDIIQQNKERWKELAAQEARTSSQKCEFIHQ
# [2] = molecular target: Dual specificity calcium/calmodulin-dependent 3',5'-cyclic nucleotide phosphodiesterase 1B (Homo sapiens, UniProt Q01064); assay: as §1
# Dual specificity calcium/calmodulin-dependent 3',5'-cyclic nucleotide phosphodiesterase 1B, sequence (Q01064 whole entry): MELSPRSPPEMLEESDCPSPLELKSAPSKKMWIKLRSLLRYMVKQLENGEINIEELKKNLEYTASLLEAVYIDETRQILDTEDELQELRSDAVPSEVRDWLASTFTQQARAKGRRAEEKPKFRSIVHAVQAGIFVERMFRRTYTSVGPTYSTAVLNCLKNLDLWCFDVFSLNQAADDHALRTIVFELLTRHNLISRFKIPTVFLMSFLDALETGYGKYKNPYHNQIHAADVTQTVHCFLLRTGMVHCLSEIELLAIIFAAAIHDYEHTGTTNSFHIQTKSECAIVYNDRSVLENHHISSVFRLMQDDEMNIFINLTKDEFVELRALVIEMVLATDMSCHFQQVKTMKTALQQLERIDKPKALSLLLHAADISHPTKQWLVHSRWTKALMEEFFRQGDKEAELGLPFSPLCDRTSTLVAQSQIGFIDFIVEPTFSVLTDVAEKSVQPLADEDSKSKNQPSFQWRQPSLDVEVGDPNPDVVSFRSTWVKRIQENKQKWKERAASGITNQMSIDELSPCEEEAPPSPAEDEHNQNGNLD
smiles,measurement,setting,value
CC(C)Sc1c2c(nn1Cc1ccc(-c3cccc(F)n3)cc1)N1CC(C)(C)N=C1N(C)C2=O,IC50,[1],5 nM
same,IC50,[2],3 µM
